Measurements as given in ChEMBL document CHEMBL1201862, “PubChem BioAssay data set” (2004).
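Where inhibition never reached the appropriate level, the endpoint shown equals the highest concentration tested. Otherwise, values were interpolated linearly from a five-concentration, 48-hour dose response in 96-well plates. GI50 is the concentration that inhibits growth by half.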 Activity calls are given as the source filed them. No stated cut-off is given here; in the data, active = GI50 up to about 1.1 µM and inactive = higher.

Columns and labels:
Experiment in all cases: growth of human tumour cells (NCI), 48 h
M14 = system: M14
Malme-3M = system: Malme-3M
OVCAR-4 = system: OVCAR-4
NCI-H23 = system: NCI-H23
SK-MEL-5 = system: SK-MEL-5
EKVX = system: EKVX
A549 = system: A549
NCI-H226 = system: NCI-H226
U-251 = system: U-251
CCRF-CEM = system: CCRF-CEM
SN12C = system: SN12C
ACHN = system: ACHN
SF-539 = system: SF-539
HL-60 = system: HL-60
CAKI-1 = system: CAKI-1
HOP-62 = system: HOP-62
A498 = system: A498
TK-10 = system: TK-10
UO-31 = system: UO-31

Measured: GI50

O=C(O)/C(Cl)=C(\Cl)C(=O)Nc1ccc(Cl)c(Cl)c1Cl
inactive: M14 18.2 µM | Malme-3M 19.3 µM | OVCAR-4 19.4 µM | NCI-H23 18.7 µM | SK-MEL-5 29.4 µM | EKVX 22.6 µM | A549 18.5 µM | NCI-H226 17.5 µM | U-251 19.5 µM | CCRF-CEM 37.2 µM | SN12C 20.9 µM | ACHN 18.1 µM | SF-539 19.1 µM | HL-60 21.4 µM | CAKI-1 18.1 µM | HOP-62 29.5 µM | A498 28.8 µM | TK-10 16.8 µM | UO-31 16.3 µM

COc1cc(Br)c(/C=N\c2cccc3ccc(OS(=O)(=O)c4cccc([N+](=O)[O-])c4)cc23)cc1OC
inactive: Malme-3M 36 µM | OVCAR-4 28.1 µM | NCI-H23 12.5 µM | SK-MEL-5 27.4 µM | EKVX 77.3 µM | A549 52.6 µM | NCI-H226 20.4 µM | U-251 19.1 µM | CCRF-CEM 12.2 µM | SN12C 33.9 µM | ACHN 32.8 µM | SF-539 16.9 µM | CAKI-1 19.1 µM | HOP-62 34.4 µM | A498 66.5 µM | UO-31 20.1 µM

NC(=O)COC(=O)c1c(Cl)nc2sccn12
inactive: M14 > 100 µM | Malme-3M > 100 µM | OVCAR-4 > 100 µM | NCI-H23 > 100 µM | SK-MEL-5 > 100 µM | EKVX > 100 µM | A549 > 100 µM | NCI-H226 > 100 µM | U-251 > 83 µM | CCRF-CEM > 31.6 µM | SN12C > 100 µM | ACHN > 100 µM | SF-539 > 100 µM | HL-60 > 46 µM | CAKI-1 > 100 µM | HOP-62 > 100 µM | A498 > 100 µM | TK-10 > 100 µM | UO-31 > 100 µM

O=C1CCC2(c3ccccc3)Nc3ccccc3N12 (stereo not drawn)
inactive: M14 > 100 µM | Malme-3M > 100 µM | OVCAR-4 > 100 µM | NCI-H23 > 100 µM | SK-MEL-5 > 100 µM | EKVX > 100 µM | A549 > 100 µM | NCI-H226 > 100 µM | U-251 > 100 µM | CCRF-CEM > 100 µM | SN12C > 100 µM | ACHN > 100 µM | SF-539 > 100 µM | HL-60 > 100 µM | CAKI-1 > 100 µM | HOP-62 > 100 µM | A498 > 100 µM | TK-10 > 100 µM | UO-31 > 100 µM

CN1C[C@@H]2CC(=O)CC[C@@H]2C[C@H]1C#N
inactive: M14 > 100 µM | Malme-3M > 100 µM | OVCAR-4 > 100 µM | SK-MEL-5 > 100 µM | A549 > 100 µM | NCI-H226 > 100 µM | CCRF-CEM > 100 µM | SN12C > 100 µM | ACHN > 100 µM | HL-60 > 100 µM | CAKI-1 > 100 µM | HOP-62 > 100 µM | A498 > 100 µM | UO-31 > 100 µM

COc1ccc(OC)c2c(C(=O)O)c(C(C)c3ccccc3)ccc12 (stereo not drawn)
inactive: M14 > 100 µM | Malme-3M > 100 µM | OVCAR-4 > 100 µM | NCI-H23 > 100 µM | SK-MEL-5 > 100 µM | EKVX > 100 µM | A549 > 100 µM | NCI-H226 > 100 µM | U-251 91.4 µM | CCRF-CEM > 100 µM | SN12C > 100 µM | ACHN > 100 µM | HL-60 > 100 µM | CAKI-1 > 100 µM | HOP-62 > 100 µM | A498 > 100 µM | TK-10 > 100 µM | UO-31 > 100 µM

CCOC(OCC)C(CC)[Se]c1ccccc1 (stereo not drawn)
inactive: M14 16 µM | Malme-3M 5.02 µM | OVCAR-4 13.3 µM | NCI-H23 7.13 µM | SK-MEL-5 > 100 µM | EKVX > 100 µM | A549 > 100 µM | NCI-H226 27.3 µM | U-251 2.25 µM | CCRF-CEM 16.3 µM | SN12C 41 µM | ACHN > 100 µM | SF-539 > 100 µM | HL-60 2.42 µM | CAKI-1 > 100 µM | HOP-62 > 100 µM | A498 > 100 µM | TK-10 > 100 µM | UO-31 > 100 µM

CC1(C)SCc2nc3ncccc3n21
inactive: M14 > 100 µM | Malme-3M > 100 µM | OVCAR-4 > 100 µM | NCI-H23 > 100 µM | SK-MEL-5 > 100 µM | EKVX > 100 µM | A549 > 100 µM | NCI-H226 > 100 µM | U-251 > 100 µM | CCRF-CEM > 100 µM | SN12C > 100 µM | ACHN > 100 µM | SF-539 > 100 µM | HL-60 > 100 µM | CAKI-1 > 100 µM | HOP-62 > 100 µM | A498 > 100 µM | TK-10 > 100 µM | UO-31 > 100 µM
